Test results taken from article PMC9393241, “Design, Synthesis, and Activity Assays of Cyclin-Dependent Kinase 1 Inhibitors With Flavone Scaffolds” (Frontiers in Chemistry, 2022).

Assays:
[1] = target: T1, CDK4/cyclin D3 (Homo sapiens, UniProt P11802); assay: In vitro anti-CDK4/cyclin D3 kinase assay (Kinase-Glo luminescence); type: biochemical; conditions: for inhibition at 20 µM: test compounds at 20 μM, read-out: Inhibition rates (%) CDK4
T1 construct: purchased
Procedure: (§1) In vitro anti-CDK1/cyclin B1 and CDK4/cyclin D3 assays were performed as described by the manufacturer. All test compounds and controls were dissolved in dimethyl sulfoxide (DMSO) to prepare 50 μM stock solutions. The stock solutions were diluted by double-distilled water and buffer to 40, 30, 20, and 10 μM working concentrations and stored at −20°C. Buffer, ATP, CDK substrate […], and distilled water were mixed, and then 25 μl of the mixture was added to a 96-well plate. Five microliters of 20 μM test compounds were sequentially added. CDK1/cyclin B1 was diluted to 1 ng/μl, and CDK4/cyclin D3 was diluted to 10 ng/μl using a buffer. Twenty microliters of the kinase solutions were incubated with the test compounds at 30°C for 45 min for CDK1/cyclin B1 and for 60 min for CDK4/cyclin D3. Finally, 50 μl of Kinase-Glo Max reagent was added to each well. The 96-well plate was covered with aluminum foil and incubated at room temperature for 15 min. Luminescence of the test compounds was measured with a microplate reader.

[2] = target: T2, CDK1/cyclin B1 (Homo sapiens, UniProt P06493); assay: In vitro anti-CDK1/cyclin B1 kinase assay (Kinase-Glo luminescence); type: biochemical; conditions: for inhibition at 20 µM: test compounds at 20 μM, read-out: Inhibition rates (%) CDK1; for Selectivity: CDK1 compared with CDK4 (CDK4 IC50 / CDK1 IC50)
T2 construct: purchased
Procedure: as §1

T2 sequence (P06493 whole entry): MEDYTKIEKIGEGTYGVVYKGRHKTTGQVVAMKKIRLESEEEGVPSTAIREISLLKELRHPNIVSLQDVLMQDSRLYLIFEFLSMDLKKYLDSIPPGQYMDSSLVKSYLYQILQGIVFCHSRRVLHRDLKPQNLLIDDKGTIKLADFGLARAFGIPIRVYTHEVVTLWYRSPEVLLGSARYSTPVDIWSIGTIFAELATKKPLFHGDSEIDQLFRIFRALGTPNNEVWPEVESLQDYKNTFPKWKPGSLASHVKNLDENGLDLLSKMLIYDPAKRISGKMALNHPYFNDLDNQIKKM
T2 sequence (P14635 whole entry partner): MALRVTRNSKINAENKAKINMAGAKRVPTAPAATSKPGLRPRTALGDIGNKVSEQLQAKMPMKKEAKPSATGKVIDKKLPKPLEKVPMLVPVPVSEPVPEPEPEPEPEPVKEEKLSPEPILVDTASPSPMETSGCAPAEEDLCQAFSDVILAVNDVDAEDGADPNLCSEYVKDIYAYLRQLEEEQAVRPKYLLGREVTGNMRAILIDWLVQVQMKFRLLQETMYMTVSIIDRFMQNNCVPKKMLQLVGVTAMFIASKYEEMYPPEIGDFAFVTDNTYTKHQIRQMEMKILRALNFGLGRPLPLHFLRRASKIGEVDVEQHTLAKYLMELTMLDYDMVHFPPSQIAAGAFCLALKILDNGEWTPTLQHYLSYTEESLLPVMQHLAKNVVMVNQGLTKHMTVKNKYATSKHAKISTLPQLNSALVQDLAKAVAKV
T1 sequence (P11802 whole entry): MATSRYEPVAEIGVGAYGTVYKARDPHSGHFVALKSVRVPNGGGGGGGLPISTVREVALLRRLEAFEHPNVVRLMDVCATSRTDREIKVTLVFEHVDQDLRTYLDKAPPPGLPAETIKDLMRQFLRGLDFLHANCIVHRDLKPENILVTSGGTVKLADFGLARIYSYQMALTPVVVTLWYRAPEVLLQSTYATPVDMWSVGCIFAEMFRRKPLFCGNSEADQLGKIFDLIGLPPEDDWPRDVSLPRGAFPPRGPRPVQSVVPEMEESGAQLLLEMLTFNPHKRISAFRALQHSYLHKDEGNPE
T1 sequence (P30281 whole entry partner): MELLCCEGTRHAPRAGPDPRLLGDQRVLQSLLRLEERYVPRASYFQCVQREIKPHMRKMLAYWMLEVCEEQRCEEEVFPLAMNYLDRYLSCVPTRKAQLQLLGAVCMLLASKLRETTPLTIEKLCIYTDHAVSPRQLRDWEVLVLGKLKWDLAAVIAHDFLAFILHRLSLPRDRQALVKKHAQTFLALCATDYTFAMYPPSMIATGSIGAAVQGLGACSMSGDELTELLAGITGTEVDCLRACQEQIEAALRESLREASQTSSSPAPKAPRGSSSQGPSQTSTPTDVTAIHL

| inhibition at 20 µM [1] | inhibition at 20 µM [2] | melting point | IC50 [1] | IC50 [2] | Selectivity [2] | SMILES |
| --- | --- | --- | --- | --- | --- | --- |
| 6.71 ± 0.07% | 25.48 ± 0.11% |  |  |  |  | O=c1cc(-c2ccccc2)oc2c(CN3CCOCC3)c(O)c(O)c(O)c12 [Compound 1a] |
| 0.09 ± 0.03% | 31.71 ± 0.08% |  |  |  |  | O=c1cc(-c2ccccc2)oc2c(CN3CCSCC3)c(O)c(O)c(O)c12 [Compound 1b] |
| 2.47 ± 0.08% | 31.11 ± 0.1% |  |  |  |  | CCCN(CCC)Cc1c(O)c(O)c(O)c2c(=O)cc(-c3ccccc3)oc12 [Compound 1d] |
|  | 31.72 ± 0.1% | 195.2 to 196.3 °C |  |  |  | O=c1cc(-c2ccccc2)oc2cc(O)c(CN3CCCC3)c(O)c12 [Compound 4a, 5,7-Dihydroxy-2-phenyl-6-(pyrrolidin-1-ylmethyl)-4H-chromen-4-one] |
|  | 28.14 ± 0.12% | 179.5 to 180.1 °C |  |  |  | CN1CCN(Cc2c(O)cc3oc(-c4ccccc4)cc(=O)c3c2O)CC1 [Compound 4b, 5,7-Dihydroxy-6-((4-methylpiperazin-1-yl)methyl)-2-phenyl-4H-chromen-4-one] |
|  | 28.66 ± 0.11% | 172.7 to 174.3 °C |  |  |  | O=c1cc(-c2ccccc2)oc2c(CN3CC=CC3)c(O)c(CN3CC=CC3)c(O)c12 [Compound 5b, 6,8-Bis((2H-pyrrol-1(5H)-yl)methyl)-5,7-dihydroxy-2-phenyl-4H-chromen-4-one] |
|  | 30.39 ± 0.09% | 211 to 212.4 °C |  |  |  | O=c1cc(-c2ccccc2)oc2c(CN3CCSCC3)c(O)c(CN3CCSCC3)c(O)c12 [Compound 5d, 5,7-Dihydroxy-2-phenyl-6,8-bis(thiomorpholinomethyl)-4H-chromen-4-one] |
|  | 26.75 ± 0.1% |  |  |  |  | CN1CCN(Cc2c(O)c(CN3CCN(C)CC3)c3oc(-c4ccccc4)cc(=O)c3c2O)CC1 [Compound 5e, 5,7-Dihydroxy-6,8-bis((4-methylpiperazin-1-yl)methyl)-2-phenyl-4H-chromen-4-one] |
|  | 39.51 ± 0.06% |  | 130 ± 2.84 µM | 55 ± 1.45 µM | 2.37 | O=c1cc(-c2ccccc2)oc2cc(OCc3ccccc3)cc(O)c12 [Compound 7a, 7-(Benzyloxy)-5-hydroxy-2-phenyl-4H-chromen-4-one] |
| 1.76 ± 0.05% | 21.27 ± 0.09% |  |  |  |  | COc1cc(O)c2c(=O)cc(-c3ccccc3)oc2c1 [Compound 7b, 5-Hydroxy-7-methoxy-2-phenyl-4H-chromen-4-one] |
|  | 22.74 ± 0.11% | 169.3 to 170.1 °C |  |  |  | O=c1cc(-c2ccccc2)oc2cc(OCCBr)cc(O)c12 [Compound 7c, 7-(2-Bromoethoxy)-5-hydroxy-2-phenyl-4H-chromen-4-one] |
|  | 31.04 ± 0.1% | 187 to 188.6 °C |  |  |  | COc1cc2oc(-c3ccccc3)cc(=O)c2c(O)c1CN1CCOCC1 [Compound 8a, 5-Hydroxy-7-methoxy-6-(morpholinomethyl)-2-phenyl-4H-chromen-4-one] |
|  | 20.47 ± 0.08% | 210.3 to 212 °C |  |  |  | COc1cc2oc(-c3ccccc3)cc(=O)c2c(O)c1CN1CCSCC1 [Compound 8b, 5-Hydroxy-7-methoxy-2-phenyl-6-(thiomorpholinomethyl)-4H-chromen-4-one] |
| 7.93 ± 0.08% | 32.4 ± 0.11% |  |  |  |  | COc1ccc(-c2cc(=O)c3c(O)cc(OC)cc3o2)cc1 [Compound 12b, 5-Hydroxy-7-methoxy-2-(4-methoxyphenyl)-4H-chromen-4-one] |
| 10.44 ± 0.07% | 34.64 ± 0.11% |  | 206 ± 3.61 µM | 31.9 ± 1.08 µM | 6.45 | COc1ccc(-c2cc(=O)c3c(O)cc(O)cc3o2)cc1 [acacetin, reference compound] |
|  | 32.77 ± 0.09% |  | 225 ± 3.46 µM | 36.6 ± 1.23 µM | 6.13 | O=c1cc(-c2ccccc2)oc2cc(O)cc(O)c12 [chrysin, reference compound] |

| SMILES | inhibition at 20 µM [1] | inhibition at 20 µM [2] | melting point | IC50 [1] | IC50 [2] | Selectivity [2] |
| --- | --- | --- | --- | --- | --- | --- |
| CN(C)Cc1c(O)c(O)c(O)c2c(=O)cc(-c3ccccc3)oc12 [Compound 1c] |  | 29.28 ± 0.11% |  |  |  |  |
| O=c1cc(-c2ccccc2)oc2cc(O)c(O)c(O)c12 [baicalein, reference compound] |  | 18.85 ± 0.09% |  | 354 ± 5.67 µM | 62.7 ± 1.52 µM | 5.65 |
